In series [1] the test system is Syrian golden hamster. In words: Reduction of sebum production in topically dosed Syrian hamster ear model administered at 0.5% concentration twice daily for 2 weeks. Type of series: functional, Mesocricetus auratus. Further details: scale not given: the % may be the effect or the level left.
The target in series [2] is T1, Androgen receptor (Homo sapiens, UniProt P10275).
T1 sequence (P10275 whole entry): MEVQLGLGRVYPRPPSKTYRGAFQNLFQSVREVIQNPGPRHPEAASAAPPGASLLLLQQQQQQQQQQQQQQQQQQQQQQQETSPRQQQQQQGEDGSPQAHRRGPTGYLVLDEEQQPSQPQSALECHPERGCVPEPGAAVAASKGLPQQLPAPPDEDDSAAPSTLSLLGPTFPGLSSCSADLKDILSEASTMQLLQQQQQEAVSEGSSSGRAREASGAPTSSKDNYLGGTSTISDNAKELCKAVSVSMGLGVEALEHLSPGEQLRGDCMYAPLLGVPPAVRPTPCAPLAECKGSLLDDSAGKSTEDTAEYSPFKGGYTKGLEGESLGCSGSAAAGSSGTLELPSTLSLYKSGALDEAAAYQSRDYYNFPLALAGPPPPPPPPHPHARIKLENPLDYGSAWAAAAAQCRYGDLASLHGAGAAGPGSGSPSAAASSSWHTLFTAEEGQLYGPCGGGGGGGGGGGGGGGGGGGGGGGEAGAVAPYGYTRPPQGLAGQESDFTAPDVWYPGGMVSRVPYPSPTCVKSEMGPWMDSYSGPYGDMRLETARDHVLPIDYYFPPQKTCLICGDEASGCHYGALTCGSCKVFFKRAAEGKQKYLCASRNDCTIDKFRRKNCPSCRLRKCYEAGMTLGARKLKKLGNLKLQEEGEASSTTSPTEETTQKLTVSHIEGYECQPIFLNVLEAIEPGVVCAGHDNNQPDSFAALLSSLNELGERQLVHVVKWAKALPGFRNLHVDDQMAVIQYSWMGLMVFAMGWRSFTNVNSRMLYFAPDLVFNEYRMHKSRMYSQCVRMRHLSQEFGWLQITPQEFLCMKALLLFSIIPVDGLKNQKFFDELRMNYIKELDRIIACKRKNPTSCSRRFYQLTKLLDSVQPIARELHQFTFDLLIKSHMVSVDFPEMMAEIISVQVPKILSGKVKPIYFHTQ
In words: Displacement of [3H]DHT from androgen receptor expressed in Sf9 cells.

The target of series [3] is T1, Androgen receptor. In words: Antagonist activity at androgen receptor expressed in MDA-MB-453 cells assessed as inhibition of dihydrotestosterone-induced response in reporter gene assay. Type of series: functional, cell-based.
For another series, the system named is Mus musculus. Nature of the series: Stimulation of hair growth in topically dosed C3H/HeN mouse model administered twice daily for 4 weeks. Type of series: functional, organism-based.
In series [4] the test system is Syrian golden hamster. In words: Reduction of sebum production in topically dosed Syrian hamster ear model administered twice daily for 2 weeks. Type of series: functional, Mesocricetus auratus.
Series [5] concerns Syrian golden hamster. Nature of the series: Reduction of sebaceous gland size in topically dosed Syrian hamster ear model administered twice daily for 2 weeks. Type of series: functional, organism-based. Particulars: Mesocricetus auratus.
Series [6] in a line: Plasma clearance in Sprague-Dawley rat at 1 mg/kg, iv. The format is ADME, organism-based. Further details: dose 1 mg/kg, route intravenous.
Series [7] in a line: Volume of distribution at steady state in Sprague-Dawley rat at 1 mg/kg, iv. Type of series: ADME, organism-based. Further details: dose 1 mg/kg, route intravenous. Particulars: in vivo, read-out: Vdss.
Series [8] in a line: Half life in Sprague-Dawley rat at 1 mg/kg, iv. Particulars: in vivo. Type of series: ADME, organism-based. Further details: dose 1 mg/kg, route intravenous.
A short description of series [9]: Metabolic stability in Sprague-Dawley rat hepatocytes assessed as hepatic extraction ratio at 1 uM. The format is ADME, cell-based, Hepatocyte. Particulars: read-out: Stability.
Series [10] in a line: Metabolic stability in Beagle dog hepatocytes assessed as hepatic extraction ratio at 1 uM. The format is ADME, cell-based, Canis lupus familiaris, Hepatocyte. Particulars: read-out: Stability.
Series [11] can be described thus: Metabolic stability in human hepatocytes assessed as hepatic extraction ratio at 1 uM. Type of series: ADME, cell-based, Hepatocyte. Particulars: read-out: Stability.

The source made the active and inactive calls. The calls are words filed in the database; no cut-off is given here.

In the series with Syrian golden hamster [1], `CC1(C)C(=O)N(c2ccc(C#N)c(C(F)(F)F)c2)C(=O)N1CCCCO` [RU-58841] came in with an Activity of 91%.
Consider `N#Cc1ccc(OC2CCCCC2C#N)cc1C(F)(F)F` (racemic), for which the IC50 worked out at 58 nM at Androgen receptor [2] and 13 nM at Androgen receptor [3].
On to `N#Cc1ccc(O[C@@H]2CCCC[C@H]2C#N)cc1C(F)(F)F`, for which, in the series on Mus musculus, the Activity entry was “Dose-dependent effect”. Besides, the ED50 with Syrian golden hamster [4] came to 0.1%. The result with Syrian golden hamster [5] was Active. The clearance in series [6] came to 71 mL/min/kg. For the same compound, the Vd in series [7] is 6.5 L/kg. The same compound had a half-life in series [8] of 1.6 h. Besides, the hepatic extraction ratio at 1 µM in series [9] came out at 0.88; in series [10] it was 0.92; in series [11], 0.57. Besides, the values for the IC50 on Androgen receptor [2] and on Androgen receptor [3] were 60 nM and 12 nM, respectively.
For `N#Cc1ccc(O[C@H]2CCCC[C@@H]2C#N)cc1C(F)(F)F`, the IC50 on Androgen receptor [2] was 43 nM; on Androgen receptor [3], 196 nM.

By IC50 is commonly meant the midpoint of a concentration-inhibition curve. Usually clearance stands for a measure of how efficiently the substance is removed, as volume per time. What is called half-life is the time in which the quantity being followed falls by half.

For the origin of these results see ChEMBL document CHEMBL1140457, “(1R,2S)-4-(2-cyano-cyclohexyl-oxy)-2-trifluoromethyl-benzonitrile, a potent androgen receptor antagonist for stimulating hair growth and reducing sebum production” (Bioorg Med Chem Lett, 2007).
